Measurements as given in patent US6040149A, “Assay for identifying agents which act on the ceramide-activated protein kinase, kinase suppressor of ras, and methods of using said agents” (priority 1997, dated 2000).

Legend:
[1] = tested on: ceramide-activated protein kinase; assay: EGFR peptide phosphorylation by kinase in A-431 microsomal membranes / postnuclear supernatant; assay type: biochemical, human (A-431 epidermoid carcinoma cells)
[2] = tested on: ceramide-activated protein kinase; conditions: ref. [40]; cited from earlier work
KSR/Raf-1 complex = assay: Co-immunoprecipitation of KSR and Raf-1 from treated COS-7 cells; assay type: cell-based, mouse KSR (COS-7 cells); conditions: TNFα
Method: FIG. […] Cells were lysed with NP-40 buffer and subjected to 4 hr of immunoprecipitation with anti-Raf-1 antibody. Two controls, KSR and KSR with ceramide treatment, received protein A conjugated sepharose beads without anti-Raf-1 antibody. […] Data represent one of four similar experiments.
Cell lysates were subjected to immunoprecipitation with anti-Flag antibody. Immunoprecipitated samples were handled as in FIG. 24A except Western blot analysis was performed with anti-Raf-1 antibody. Data represent one of three similar experiments.
Anti-Raf-1 antibody conjugated beads were prepared by overnight incubation of 2 μl of anti-Raf-1 antibody (a kind gift of Dr. Debbie Morrison) with 5 mg of the protein A conjugated sepharose beads, followed by washing three times with NP-40 lysis buffer. […] Lysates (0.8 mg total protein) were then incubated for 4 hrs with anti-Raf-1 bound sepharose beads or anti-Flag conjugated agarose beads. The beads were washed vigorously 5 times, boiled in Laemmli sample buffer, and proteins were separated on 7.5% SDS-PAGE. After electrophoresis, the gel was transferred to PVDF membrane and probed with anti-Flag antibody or anti-Raf-1 antibody.

[3] = tested on: ceramide-activated protein kinase; conditions: treatment of intact cells; literature; cited from earlier work
KSR = target: T1, KSR (Mus musculus, UniProt Q61097); assay: KSR autophosphorylation after treatment of COS-7 cells expressing KSR; assay type: cell-based, mouse (KSR expressed in COS-7 cells); conditions: TNFα 10 nM
T1 sequence (Q61097 1-873): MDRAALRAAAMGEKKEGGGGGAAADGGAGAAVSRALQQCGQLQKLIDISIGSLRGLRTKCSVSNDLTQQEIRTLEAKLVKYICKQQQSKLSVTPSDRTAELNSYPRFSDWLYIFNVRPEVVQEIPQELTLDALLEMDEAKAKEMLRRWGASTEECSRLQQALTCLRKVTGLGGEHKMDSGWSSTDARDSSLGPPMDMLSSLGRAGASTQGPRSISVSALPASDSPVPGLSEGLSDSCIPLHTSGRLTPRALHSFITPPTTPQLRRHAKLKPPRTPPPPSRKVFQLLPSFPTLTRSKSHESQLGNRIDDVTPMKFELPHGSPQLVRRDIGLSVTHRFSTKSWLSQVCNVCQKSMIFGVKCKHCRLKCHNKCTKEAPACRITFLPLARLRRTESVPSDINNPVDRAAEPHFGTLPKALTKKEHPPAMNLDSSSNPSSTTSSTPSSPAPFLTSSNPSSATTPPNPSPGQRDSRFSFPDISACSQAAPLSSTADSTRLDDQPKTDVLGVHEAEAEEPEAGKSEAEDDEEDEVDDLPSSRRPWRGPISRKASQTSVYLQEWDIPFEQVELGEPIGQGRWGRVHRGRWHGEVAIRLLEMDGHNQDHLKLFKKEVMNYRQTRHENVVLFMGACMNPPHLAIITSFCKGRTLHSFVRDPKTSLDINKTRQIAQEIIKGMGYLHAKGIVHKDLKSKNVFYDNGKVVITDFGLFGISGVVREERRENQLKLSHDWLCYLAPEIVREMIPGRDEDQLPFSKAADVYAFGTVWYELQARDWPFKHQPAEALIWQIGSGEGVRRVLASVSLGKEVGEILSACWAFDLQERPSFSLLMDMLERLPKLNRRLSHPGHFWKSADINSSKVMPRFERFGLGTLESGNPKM
Method: FIG. 23A--COS-7 cells were transfected as in FIG. 22A and placed in serum-free medium. After 4 hours, cells were stimulated for 10 min with the ceramide analog, C2-ceramide (Biomol), at the concentrations indicated. Cells were lysed with NP-40 lysis buffer, and Flag-tagged KSR (0.8 mg protein for each point) was immunoprecipitated and assayed for autophosphorylation activity as described in Experimental Procedures. The autoradiogram was exposed for 1 hour. KSR is expressed at similar levels in each sample as monitored by Western blot (data not shown). Data represent one of three similar experiments.
COS-7 cells expressing Flag-tagged KSR were stimulated with 10 nM TNFα for the times indicated and lysed with NP-40 buffer as in FIG. 2A. […] The autoradiogram was exposed for 1 hour. Data represent one of three similar experiments.
KSR was immunoprecipitated as above from 0.8 mg NP-40 lysate protein with 40 μl agarose-conjugated anti-Flag antibody at 4° C. for 4 hrs or overnight. […] The reaction was stopped by addition of Laemmli sample buffer. Samples were resolved by 7.5% sodium dodecyl sulfate-polyacrylamide gel electrophoresis (SDS-PAGE) and autoradiographed.

Compound	EGFR peptide phosphorylation, fold of control ([1]; 2 minutes of stimulation, maximal effect for ceramide at 1 μM)	effect on EGFR peptide phosphorylation ([1]; words)	ED50 for stimulation of ceramide-activated protein kinase in intact cells [2]	KSR complex formation with Raf-1 (KSR/Raf-1 complex)	enhancement of CAP kinase autophosphorylation / activity [3]	KSR autophosphorylating activity (KSR)	time to maximal effect (KSR; autophosphorylation, Raf-1 phosphorylation and activation)
CCCCCCCCCCCCC/C=C/[C@@H](O)[C@@H](N)CO [sphingosine]	1.6 fold of control	similarly effective					
TNF-α			200 pM	induced KSR to complex with Raf-1	5-10 fold	time-dependent enhancement	≤ 20 min
